Two compounds from ChEMBL document CHEMBL1154097, “Novel 3,3'-diindolylmethane derivatives: synthesis and cytotoxicity, structural characterization in solid state” (Eur J Med Chem, 2009) can be followed below.

Calls of active or inactive are those of the source. The calls are words filed in the database; no cut-off is given here.

Experiment [1] concerns IGROV-1. Description: Cytotoxicity against human IGROV1 cells. The class given is functional.
The test system of experiment [2] is UO-31. The experiment in a line: Cytotoxicity against human UO31 cells. It counts as functional.
The subject of experiment [3] is SK-MEL-2. Description: Cytotoxicity against human SK-MEL-2 cells. The class given is functional.
Experiment [4] has as its system PC-3. Description: Cytotoxicity against human PC3 cells. It counts as functional.
Experiment [5] has as its system Malme-3M. Description: Cytotoxicity against human MALME-3M cells at 10 uM. The class given is functional, cell-based.

Regarding `Fc1cc(F)cc(C(c2c[nH]c3ccccc23)c2c[nH]c3ccccc23)c1`, the Activity is recorded as -6.52% in experiment [1], 52.86% in experiment [2], 58.84% in experiment [3] and 67.07% in experiment [4]. Also, in experiment [5], the outcome was Active.

Turning to `COc1ccc2[nH]cc(C(c3cc(F)cc(F)c3)c3c[nH]c4ccc(OC)cc34)c2c1`, the Activity was -7.1% in experiment [1], 43.23% in experiment [2], 62.49% in experiment [3] and 50.16% in experiment [4]. Moreover, the outcome in experiment [5] was Active.
